According to patent US8283465B2, “Triazolopyridine compound, and action thereof as prolyl hydroxylase inhibitor or erythropoietin production-inducing agent” (Japan Tobacco Inc., priority 2009, dated 2012):
Where a name gives a salt, the structure may show the parent alone. Read-outs that look alike come from different tables or passages of the source.

Tests used:
human PHD2 = target: T1, human PHD2 (Homo sapiens, UniProt Q9GZT9); experiment: Measurement of human PHD inhibitory activity (TR-FRET, hydroxylation of HIF-1α partial peptide); assay type: biochemical; settings: human PHD2 enzyme 1 nM, 25° C. 30 min, values consisting solely of numbers
T1 construct: made in house; host or cells: Sf9 insect cells (baculovirus, pVL1393 vector)
T1 sequence (Q9GZT9 whole entry): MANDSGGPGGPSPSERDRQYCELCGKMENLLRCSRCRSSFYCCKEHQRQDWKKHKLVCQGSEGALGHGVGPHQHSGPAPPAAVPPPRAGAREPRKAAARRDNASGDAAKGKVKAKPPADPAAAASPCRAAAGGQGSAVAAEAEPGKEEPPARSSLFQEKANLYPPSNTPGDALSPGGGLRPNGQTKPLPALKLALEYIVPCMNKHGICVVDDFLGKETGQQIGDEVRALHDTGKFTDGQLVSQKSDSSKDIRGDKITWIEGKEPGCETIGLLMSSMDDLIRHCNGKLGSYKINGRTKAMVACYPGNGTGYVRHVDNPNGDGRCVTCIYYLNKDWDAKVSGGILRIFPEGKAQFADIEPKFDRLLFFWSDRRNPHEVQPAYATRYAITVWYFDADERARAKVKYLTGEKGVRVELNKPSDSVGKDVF
Experimental: Human PHD2 was expressed in insect cell (Sf9 cell). […] The vector and baculovirus were cotransfected into Sf9, and human PHD2 expression baculovirus was isolated in Sf9. By using the virus, human PHD2-expressed cell was prepared. […] The cell lysate was flowed into a column filled with ANTI-FLAG M2 Affinity Gel Freezer Safe (SIGMA), washed, and the N-terminal FLAG-tag-added human PHD2 was eluted and collected.
VBC complex (VHL/Elongin B/Elongin C) was expressed in Escherichia coli (BL21(DE3)). […] After these expression vectors were transfected into Escherichia coli (BL21(DE3)), Escherichia coli was cultured at 37° C. in the medium containing IPTG. The collected Escherichia coli was disrupted by sonication and flowed into a column filled with Ni-NTA superflow (QIAGEN), washed, and the product was eluted and collected. The eluate was flowed into a column filled with Glutathione Sepharose 4B, washed, and the product was eluted and collected. […]
As for human PHD2 enzyme activity, hydroxylation of proline residue contained in the 19 residues of the partial peptide based on the sequence of HIF-1α as a substrate was measured by TR-FRET (Time-Resolved Fluorescence Resonance Energy Transfer) method.
A test compound and a substrate solution were added to a 96-well plate. The reaction was started by addition of a human PHD2 enzyme solution (final concentration 1 nM) to the reaction system. After incubation at 25° C. for 30 min, a stop solution containing EDTA was added, and a VBC complex solution containing europium (Eu) and Xlent was added, and the amount of hydroxylated proline residue was quantified by time-resolved fluorescence spectroscopy. The time-resolved fluorescence in each well was measured, and the human PHD inhibitory activity (%) of the test compound was calculated based on the values of enzyme non-addition well and test compound non-addition well.

[1] = test system: human EPO production, Hep3B cells; experiment: Human EPO production activity in Hep3B cells (EPO-ELISA of culture supernatant); assay type: cell-based; settings: for EC50: 24 hr incubation, values consisting solely of numbers, read-out: EC50 (μM) in vitro, human EPO production activity; for production activity (%) at 30 μM in vitro, human EPO: 24 hr, values containing %, relative to maximum production
Experimental: The activity of the test compound on human EPO production was measured using Hep3B (AMC) established from human liver-derived cell line.
Hep3B cells were cultured in Eagle-MEM medium containing 10% fetal bovine serum, and the test compound was diluted with dimethyl sulfoxide (DMSO).
Hep3B cells were cultured in a 96-well plate, and a test compound was added at each concentration 24 hr later. After incubation at 37° C. for 24 hr, the culture supernatant was collected. The concentration of human EPO produced in the culture supernatant was measured using a human EPO-ELISA kit (manufactured by StemCell Technologies, 01630) according to the manufacturer's explanation, and the human EPO production activity (%) of the test compound was calculated based on the maximum value of production under the above conditions and the value without addition of the test compound. […] In these Tables, the values consisting solely of numbers show EC50 (μM) and those containing % show human EPO production activity (%) at […].

[2] = read-out: IC50 (μM) in vitro, human PHD inhibitory activity

SMILES | IC50 (human PHD2; [2]) [µM] | EC50 ([1]; Homo sapiens) [µM] | also measured
O=C(O)CNC(=O)c1c(O)cc(CCc2ccccc2)n2ncnc12 [Example 2, [(7-hydroxy-5-phenethyl[1,2,4]triazolo[1,5-a]pyridine-8-carbonyl)amino]acetic acid hydrochloride] | – | – | IC50 (human PHD2; IC50 (μM) in vitro, human PHD inhibitory activity): 0.22 µM; EC50 ([1]; Homo sapiens, Hep3B, 24 h): 10.9 µM
O=C(O)CNC(=O)c1c(O)c(CCc2ccccc2)cn2ncnc12 [Example 5, [(7-hydroxy-6-phenethyl[1,2,4]triazolo[1,5-a]pyridine-8-carbonyl)amino]acetic acid hydrochloride] | 1.17 | 11.5 | –
CCCCc1c(Cl)c(O)c(C(=O)NCC(=O)O)c2ncnn12 [Example 6, [(5-butyl-6-chloro-7-hydroxy[1,2,4]triazolo[1,5-a]pyridine-8-carbonyl)amino]acetic acid hydrochloride] | 0.87 | 20.8 | –
CC(C)(C)CCc1cc(O)c(C(=O)NCC(=O)O)n2ncnc12 [Example 8, {[8-(3,3-dimethyl-butyl)-6-hydroxy[1,2,4]triazolo[1,5-a]pyridine-5-carbonyl]amino}acetic acid hydrochloride] | 0.49 | 13.4 | –
O=C(O)CNC(=O)c1c(O)c(-c2ccccc2)cn2cnnc12 [Example 9, [(7-hydroxy-6-phenyl[1,2,4]triazolo[4,3-a]pyridine-8-carbonyl)amino]acetic acid] | 1.57 | – | production activity (%) at 30 μM in vitro, human EPO [1]: 1%
O=C(O)CNC(=O)c1c(O)ccc2cnnn12 [Example 11, [(6-hydroxy[1,2,3]triazolo[1,5-a]pyridine-7-carbonyl)amino]acetic acid] | 0.29 | – | production activity (%) at 30 μM in vitro, human EPO [1]: 1%
O=C(O)CNC(=O)c1c(O)ccn2nc(-c3ccccc3)nc12 [Example 13, [(7-hydroxy-2-phenyl[1,2,4]triazolo[1,5-a]pyridine-8-carbonyl)amino]acetic acid hydrochloride] | 1.31 | – | production activity (%) at 30 μM in vitro, human EPO [1]: 1%
O=C(O)CNC(=O)c1c(O)cc(CCc2ccccc2)n2nc(C3CC3)nc12 [Example 15, [(2-cyclopropyl-7-hydroxy-5-phenethyl[1,2,4]triazolo[1,5-a]pyridine-8-carbonyl)amino]acetic acid hydrochloride] | 1.8 | 29.1 | –
CC(C)CCc1cc(O)c(C(=O)NCC(=O)O)c2ncnn12 [Example 18, {[7-hydroxy-5-(3-methylbutyl)[1,2,4]triazolo[1,5-a]pyridine-8-carbonyl]amino}acetic acid hydrochloride] | 0.48 | 6.1 | –
O=C(O)CNC(=O)c1c(O)cc(CC2CCCC2)n2ncnc12 [Example 20, [(5-cyclopentylmethyl-7-hydroxy[1,2,4]triazolo[1,5-a]pyridin-8-carbonyl)amino]acetic acid hydrochloride] | 0.59 | 6.6 | –
CC(C)(C)CCc1cc(O)c(C(=O)NCC(=O)O)c2ncnn12 [Example 24, {[5-(3,3-dimethylbutyl)-7-hydroxy[1,2,4]triazolo[1,5-a]pyridine-8-carbonyl]amino}acetic acid hydrochloride] | 0.57 | 5.4 | –
O=C(O)CNC(=O)c1c(O)cc(CC2CCCCC2)n2ncnc12 [Example 28, [(5-cyclohexylmethyl-7-hydroxy[1,2,4]triazolo[1,5-a]pyridine-8-carbonyl)amino]acetic acid hydrochloride] | 1.38 | 13.9 | –
Cl.O=C(O)CNC(=O)c1c(O)ccc2ncnn12 [Example 107, [(6-hydroxy[1,2,4]triazolo[1,5-a]pyridine-5-carbonyl]amino} acetic acid hydrochloride] | – | – | production activity (%) at 30 μM in vitro, human EPO [1]: 4%
CCCCc1cc(O)c(C(=O)NCC(=O)O)c2ncnn12 [Example 117, [(5-butyl-7-hydroxy[1,2,4]triazolo[1,5-a]pyridine-8-carbonyl)amino] acetic acid] | – | – | EC50 [1]: 7.7 µM

Further lines, with some results ahead:

IC50 (human PHD2; [2]) [µM] | EC50 ([1]; Homo sapiens) [µM] | SMILES | also measured
0.42 | 9.9 | O=C(O)CNC(=O)c1c(O)cc(-c2ccc(F)c(C(F)(F)F)c2)n2ncnc12 [Example 1, {[5-(4-fluoro-3-trifluoromethylphenyl)-7-hydroxy[1,2,4]triazolo[1,5-a]pyridine-8-carbonyl]amino}acetic acid hydrochloride] | –
0.23 | 5.1 | O=C(O)CNC(=O)c1c(O)cc(CCc2ccc(Cl)cc2)n2ncnc12 [Example 14, ({5-[2-(4-chlorophenyl)ethyl]-7-hydroxy[1,2,4]triazolo[1,5-a]pyridine-8-carbonyl}amino)acetic acid hydrochloride] | –
0.32 | 7 | O=C(O)CNC(=O)c1c(O)cc(CCc2ccc(C(F)(F)F)cc2)n2ncnc12 [Example 16, ({7-hydroxy-5-[2-(4-trifluoromethyl-phenyl)ethyl][1,2,4-]triazolo[1,5-a]pyridine-8-carbonyl}amino)acetic acid hydrochloride] | –
0.26 | 6.6 | O=C(O)CNC(=O)c1c(O)cc(CCc2cc(F)cc(F)c2)n2ncnc12 [Example 19, ({5-[2-(3,5-difluorophenyl)ethyl]-7-hydroxy[1,2,4]triazolo[1,5-a]pyridine-8-carbonyl}amino)acetic acid hydrochloride] | –
0.25 | 12 | O=C(O)CNC(=O)c1c(O)cc(-c2cc(F)cc(F)c2)n2ncnc12 [Example 21, {[5-(3,5-difluorophenyl)-7-hydroxy[1,2,4]triazolo[1,5-a]pyridine-8-carbonyl]amino}acetic acid] | –
0.19 | 7.8 | O=C(O)CNC(=O)c1c(O)cc(-c2ccc(F)c(Cl)c2)n2ncnc12 [Example 23, {[5-(3-chloro-4-fluorophenyl)-7-hydroxy[1,2,4]triazolo[1,5-a]pyridine-8-carbonyl]amino}acetic acid hydrochloride] | –
0.25 | 14.1 | O=C(O)CNC(=O)c1c(O)cc(-c2ccc(F)c(F)c2)n2ncnc12 [Example 25, {[5-(3,4-difluorophenyl)-7-hydroxy[1,2,4]triazolo[1,5-a]pyridine-8-carbonyl]amino}acetic acid hydrochloride] | –
0.33 | 7.5 | Cc1ccc(-c2cc(O)c(C(=O)NCC(=O)O)c3ncnn23)cc1 [Example 26, {[7-hydroxy-5-(p-tolyl)[1,2,4]triazolo[1,5-a]pyridine-8-carbonyl]amino}acetic acid hydrochloride] | –
0.92 | 11.3 | O=C(O)CNC(=O)c1c(O)cc(CCCc2ccccc2)n2ncnc12 [Example 29, {[7-hydroxy-5-(3-phenylpropyl)[1,2,4]triazolo[1,5-a]pyridine-8-carbonyl]amino}acetic acid] | –
0.98 | 15.4 | O=C(O)CNC(=O)c1c(O)cc(C2CCCC2)n2ncnc12 [Example 30, [(5-cyclopentyl-7-hydroxy[1,2,4]triazolo[1,5-a]pyridine-8-carbonyl)amino]acetic acid hydrochloride] | –
0.64 | – | O=C(O)CNC(=O)c1c(O)cc(-c2cc(F)cc(C(F)(F)F)c2)n2ncnc12 [Example 118, {[5-(3-fluoro-5-trifluoromethyl phenyl)-7-hydroxy[1,2,4]triazolo[1,5-a]pyridine-8-carbonyl]amino} acetic acid] | –
0.33 | – | O=C(O)CNC(=O)c1c(O)cc(-c2ccc(F)c(C(F)(F)F)c2)n2ncnc12 [Example 121, {[5-(4-fluoro-3-trifluoromethyl phenyl)-7-hydroxy[1,2,4]triazolo[1,5-a]pyridine-8-carbonyl]amino} acetic acid] | –
0.96 | – | O=C(O)CNC(=O)c1c(O)cc(-c2cc(F)cc(C3CC3)c2)n2ncnc12 [Example 122, {[5-(3-cyclopropyl-5-fluorophenyl)-7-hydroxy[1,2,4]triazolo[1,5-a]pyridine-8-carbonyl]amino} acetic acid] | –
